Laboratory results taken from patent publication US20110224232A1 (Board of Regents, The University of Texas System, priority 2008, published 2011).
In brackets after ≈: the same amount, converted by molar mass. Entries after “also recorded” stand apart in the source; their conditions may differ. Like-named read-outs stand apart in the source and are kept apart here.

Tests used:
[1] = tested on: Aspergillus fumigatus; assay: Pulmonary fungal burden by real-time quantitative PCR (conidial equivalents) in infected mice; format: in vivo; details: Day + 8 per table footnote
Method: (§1) Mice were monitored for an additional 5 days following discontinuation of treatment. Animals that appeared moribund prior to the end of the study were euthanized by halothane and death was recorded as occurring the next day. 12 mice were randomly selected from each group and euthanized on Day +8 for fungal burden analysis while any remaining mice were euthanized on Day +12. 2 additional mice were randomly selected from each group and euthanized on Day +8 and Day +12 for histological analysis
Pulmonary fungal burden was also quantified by real-time quantitative polymerase chain reaction (qPCR) using previously described methods. Briefly, DNA was extracted from […] of lung homogenate with the use of a commercially available kit (DNeasy Tissue Kit, Qiagen, Valencia, Calif.) according to the manufacturer's instructions. DNA samples were analyzed in duplicate with the use of the ABI PRISM 7300 sequence-detection system (Applied Biosystems, Foster City, Calif.) with primers and dual-labeled fluorescent hybridization probes specific for the A. fumigatus 1,3-β-glucan synthase (FKS) gene (GenBank accession number U79728). The threshold cycle (Ct) of each sample was interpolated from a six-point standard curve generated by spiking naive mouse lungs with known amounts of conidia (102 to 107). An internal standard was amplified in separate reactions to correct for differences in DNA recovery. The resulting data was expressed as conidial equivalents (CE).
(§2) Statistical analyses were conducted as follows. Survival was plotted by Kaplan-Meier analysis, and differences in median survival and percent survival between prophylaxis groups were analyzed by the log-rank test and chi-square test, respectively, using Prism version 4 software (GraphPad, San Diego, Calif.). Differences in fungal burden endpoints (CFU/g and CE) were assessed for significance by analysis of variance with Tukey's post-test for multiple comparisons. A p-value of ≦0.05 was considered statistically significant for all comparisons.

[2] = tested on: Aspergillus fumigatus; assay: Pulmonary fungal burden by colony forming units in infected mice; format: in vivo
Method: as §1
Lungs were homogenized in sterile saline (total volume 2 mL) supplemented with gentamicin and chloramphenicol using a tissue homogenizer (Polytron Dispensing and Mixing Technology PT 2100, Kinematica, Cincinnati, Ohio). Serial dilutions were prepared in sterile saline and plated in duplicate onto potato dextrose agar. Following 24 hours of incubation at 37° C., colonies were enumerated and colony forming units (CFU) per gram of lung tissue for each animal were calculated.
as §2

[3] = tested on: A. fumigatus; details: cited from earlier work
[4] = tested on: Aspergillus fumigatus; details: cited from earlier work
[5] = tested on: A. fumigatus; assay: Lung histopathology, pulmonary lesion counts in A. fumigatus-infected mice; format: in vivo, Aspergillus fumigatus
Method: Histopathological changes in lung tissue were evaluated and compared for four mice in each of the inhaled voriconazole, inhaled control, and intraperitoneal AmB groups. The inhaled control was aerosolized CAPTISOL® at a concentration of 100 mg/mL over 20 minutes. On day 8 post inoculation, animals were euthanized using halothane and 10% volume/volume formaldehyde was instilled into the lungs via the trachea. Lungs were then harvested and placed into 10% volume/volume formaldehyde. Tissue was fixed in formaldehyde for an adequate period of time followed by processing and embedding into paraffin wax. Coronal sections of the entire lung were obtained at a thickness of 4-6 μm and mounted on slides. Sections were stained with hematoxylin and eosin and viewed by light microscopy with a Zeiss AxioVision Imager at 10× magnification. Two investigators were blinded and independently evaluated each lung section. The extent of lung damage caused by invasive hyphae was recorded and quantified by counting and normalizing the number of gross lesions.
Normalization of the histopathology results was achieved by using the number of lung pieces (sections) on the slide as a denominator. The total number of lesions on the slide were counted and then divided by the number of pieces of tissue on that slide. This was done because the number of pieces of tissue per slide (again, all from the same cut of lung from the same animal) ranged from 4 to 9. For example, the normalized number of lesions would be 0.4 if 2 lesions were observed on a slide with 5 lung pieces. Similarly, the normalized value would be 0.14 if 1 lesion was observed on a slide with 7 lung pieces.

[6] = tested on: Aspergillus fumigatus clinical isolate 293 (AF 293); assay: Survival of A. fumigatus-infected immunosuppressed mice (Kaplan-Meier); format: in vivo; details: for Percent Survival / Median Survival: A. fumigatus-infected female ICR mice, VOR inhalation BID 30-40 mg/kg, AmB intraperitoneal QD 1 mg/kg; for Percent Survival: to Day +12
Text: Conidia were harvested from Aspergillus fumigatus clinical isolate 293 (AF 293) cultures grown on potato dextrose agar (Hardy Diagnostics, Santa Maria, Calif.) by washing and scraping agar surfaces with 0.1% Tween 80 in sterile physiological saline and filtering through sterile glass wool. Conidia were re-suspended to achieve a final inoculum of ˜1×10^9 conidia/mL, as confirmed by hemocytometer counts and serial plating.
Mice were rendered immunosuppressed by intraperitoneal cyclophosphamide (250 mg/kg) and subcutaneous cortisone acetate (250 mg/kg) two days prior to inoculation (Day −2). Both cyclophosphamide (200 mg/kg intraperitoneal) and cortisone acetate (250 mg/kg subcutaneously) were re-administered on Day +3 following inoculation. Mice also received prophylactic antibiotic therapy of ceftazidime 50 mg/kg administered sub-cutaneously on Day −2 through Day +7.
To simulate pulmonary pathogenesis, mice were placed inside an acrylic chamber, and A. fumigatus conidia were introduced by aerosolizing the conidial suspension with a small particle nebulizer (Hudson Micro Mist, Hudson RCI, Temecula, Calif.) driven by compressed air. A standard exposure time of 1 hour was used to allow for complete aerosolization of the conidial suspension. Starting inocula were assessed by colony forming unit (CFU) enumeration from mice one hour post-inoculation.
The inhaled control group received 20 minute nebulizations of 100 mg/mL CAPTISOL® solutions BID beginning on Day −2 and continuing through Day +7. The intraperitoneal AmB group received 1 mg/kg Amphotericin B deoxycholate (Apothecon, Princeton, N.J.) by intraperitoneal injection (IP) once daily (QD) on Day +1 and continuing through Day +7 (FIG. 2).
Statistical analyses were conducted as follows. Survival was plotted by Kaplan-Meier analysis, and differences in median survival and percent survival between prophylaxis groups were analyzed by the log-rank test and chi-square test, respectively, using Prism version 4 software (GraphPad, San Diego, Calif.). […] A p-value of ≦0.05 was considered statistically significant for all comparisons.

[7] = Aqueous and phase solubility of voriconazole with SAE-CD; format: physicochemical
[8] = Single-dose pharmacokinetics of inhaled voriconazole in mice; details: for AUC(0-t): AUC (0-6 hr) Plasma
Method: Initially, a single dose PK profile was performed on large mice with a 5 L/min flow rate through the dosing apparatus (see Table 2).
A subsequent PK study was then performed on smaller mice due to the mouse size constraints of the murine model of infection at a lower air flow rate of 1 L/min. Male ICR mice were exposed to a 20 minute nebulization period. […] Plasma was separated from whole blood collected to determine drug concentration (adapted from Pascual et al., Antimicrobial Agents and Chemotherapy, 2007, 51:1). Lungs were harvested and homogenized to determine drug concentration (adapted from Lutsar et al., Clinical Infectious Disease, 2003, 37:5).
Mice were dosed using a nose-only dosing apparatus as illustrated in FIGS. 1A-1B. VFEND® IV was reconstituted, diluted, and aerosolized as described previously. The airflow through the dosing apparatus was varied from 1-5 L/min (see Table 2). Sufficient solution was added to the medication reservoir to have residual volume remaining after 20 minutes. The nose-only dosing apparatus and nebulizer were disassembled between each dose, cleaned, dried, and reassembled.
Pharmacokinetic (PK) profiles were determined for high flow rate and low flow rate mice groups following a single 20 minute nebulization. Mice were ordered with masses of 32 g (high flow rate mice) and 20 g (low flow rate mice). Two or more mice were sacrificed by carbon dioxide narcosis at each time point (high flow rate mice—5, 10, 20, 30, 60, 90, 150, 240, 360, 720, and 1440 minutes or low flow rate mice—10, 30, 60, 240, 360, and 480 minutes). Whole blood was collected by cardiac puncture, stored in heparinized vials, and centrifuged to obtain plasma. Surgery was also performed on each mouse to extract the whole lungs which were then homogenized in 1 mL of normal saline. […] The trapezoidal rule was used to estimate the area under the curve (AUC) for each concentration versus time profile.
Briefly, sterile water for injection (SWFI) was added to lung tissue and homogenized using a rotor and stator high shear homogenizer. Proteins and other cellular components were precipitated following addition of 0.2M borate buffer (pH 9.0), ethyl acetate, and centrifugation. Supernatant was then extracted three times and liquid was evaporated under a gentle stream of nitrogen.
For lung tissue, SWFI was added to lung tissue and homogenized using a rotor and stator high shear homogenizer. […] Supernatant was then extracted three times and liquid was evaporated under a gentle stream of nitrogen.
Each sample was analyzed using a Waters Breeze liquid chromatograph (Waters Corporation, Milford Mass.) equipped with a heated (35° C.) JUPITER® C18 (150 mm×4.6 mm, 5 micrometer) with a Universal security guard (Widepore C18) guard column (Phenomenex, Torrance, Calif.). The sample volume was 50 microliter with a UV detection wavelength of 254 nm. The mobile phase consisted of a 50:50 mixture of 0.01 M sodium acetate buffer and methanol at 1 mL/min.
Male ICR mice were dosed using a nose-only dosing apparatus as illustrated in FIGS. 1A and 1B. The airflow through the dosing apparatus was varied from 1-5 L/min. VFEND® IV was reconstituted, diluted, and sufficient solution was added to the medication reservoir to have residual volume remaining after 20 minutes. The nose-only dosing apparatus and nebulizer were disassembled between each dose, cleaned, dried, and reassembled.
Single-dose pharmacokinetic profiles were determined in two groups of mice: a high flow-rate group (5 L/min air flow, 32 g average mass) and low flow-rate group (1 L/min, 20 g average mass). Two or more mice were sacrificed by carbon dioxide narcosis at each time point (high flow-rate: 5, 10, 20, 30, 60, 90, 150, 240, 360, 720, and 1440 minutes or low flow-rate mice: 10, 30, 60, 240, 360, and 480 minutes). Whole blood was collected by cardiac puncture into heparinized vials and centrifuged to obtain plasma.

[9] = normalized lesions, listed as VRC
[10] = Small Mice (low flow rate, 1 L/min), single dose

Structure (SMILES): CC(c1ncncc1F)C(O)(Cn1cncn1)c1ccc(F)cc1F (stereo not drawn) [Voriconazole, 2-(2,4-difluorophenyl)-3-(5-fluoropyrimidin-4-yl)-1-(1H-1,2,4-triazol-1-yl)butan-2-ol]
- C - Conidial Equivalents Determined by qPCR, Mean [1]: 4.56 log10 conidial equivalents
- C - Conidial Equivalents Determined by qPCR, Median [1]: 4.59 log10 conidial equivalents
- C - Conidial Equivalents Determined by qPCR, Range [1]: (3.77-5.32) log10 conidial equivalents
- D - Conidial Equivalents per Gram of Lung Tissue Determined by Qpcr, Mean ([1]; normalized for wet lung weight): 5.19 log10 conidial equivalents per
- D - Conidial Equivalents per Gram of Lung Tissue Determined by Qpcr, Median ([1]; normalized for wet lung weight): 5.24 log10 conidial equivalents per
- D - Conidial Equivalents per Gram of Lung Tissue Determined by Qpcr, Range ([1]; normalized for wet lung weight): (4.45-5.98) log10 conidial equivalents per
- A - Day 8 Fungal Burden Determined by CFU, Mean ([2]; Day +8): 4.26 log10 CFU
- A - Day 8 Fungal Burden Determined by CFU, Median ([2]; Day +8): 4.21 log10 CFU
- A - Day 8 Fungal Burden Determined by CFU, Range ([2]; Day +8): (3.62-4.68) log10 CFU
- B - Fungal Burden Determined by CFU for All Mice, Mean ([2]; all samples, day 8 and day 12): 3.88 log10 CFU
- B - Fungal Burden Determined by CFU for All Mice, Median ([2]; all samples, day 8 and day 12): 4.14 log10 CFU
- B - Fungal Burden Determined by CFU for All Mice, Range ([2]; all samples, day 8 and day 12): (2.60-4.68) log10 CFU
- reduction in fungal burden between the groups (CFUs per gram of lung mass and CEs by qPCR) ([2]; in vivo): no significant reduction in fungal burden
- fungicidal activity at a low concentration [3]: 0.5 microgram/mL
- EC50 value (concentration resulting in 50% inhibition of growth compared to control) ([3]; non-linear regression analysis): 0.18 micrograms/mL
- MIC50 ([4]; A. fumigatus clinical test isolates): 0.25 µg/mL (≈ 0.000716 mM)
- minimum inhibitory concentrations for 90% of isolates (MIC90) ([4]; Aspergillus fumigatus): 0.5-1 microgram/mL
- MIC90 ([4]; red line in FIG. 10): 0.52 µg/mL (≈ 0.00149 mM)
- lung histopathology findings (in words) ([5]; A. fumigatus-infected mice, aerosolized voriconazole, intraperitoneal amphotericin B): fewer signs of invasive disease and markedly improved histological findings; also recorded: fewer signs of invasive disease and markedly improved histological results; also recorded: Invasive hyphae and tissue destruction characteristic of invasive pulmonary aspergillosis were not observed
- pulmonary lesions normalized for the number of lung tissue pieces per slide, 25th Percentile ([5]; normalized lesions): 0.19
- pulmonary lesions normalized for the number of lung tissue pieces per slide, 75th Percentile ([5]; normalized lesions): 0.51
- pulmonary lesions normalized for the number of lung tissue pieces per slide, Maximum ([5]; normalized lesions): 0.55
- pulmonary lesions normalized for the number of lung tissue pieces per slide, Mean ([5]; normalized lesions): 0.4
- pulmonary lesions normalized for the number of lung tissue pieces per slide, Median ([5]; normalized lesions): 0.37
- pulmonary lesions normalized for the number of lung tissue pieces per slide, Minimum ([5]; normalized lesions): 0.14
- pulmonary lesions normalized for the number of lung tissue pieces per slide, 25th Percentile [5, 9]: 0.2
- pulmonary lesions normalized for the number of lung tissue pieces per slide, 75th Percentile [5, 9]: 0.5
- pulmonary lesions normalized for the number of lung tissue pieces per slide, Maximum [5, 9]: 0.6
- pulmonary lesions normalized for the number of lung tissue pieces per slide, Median [5, 9]: 0.4
- pulmonary lesions normalized for the number of lung tissue pieces per slide, Minimum [5, 9]: 0.1
- pulmonary lesions in all available histological samples, 25th Percentile ([5]; number of lesions): 1.3
- pulmonary lesions in all available histological samples, 75th Percentile ([5]; number of lesions): 4.3
- pulmonary lesions in all available histological samples, Maximum ([5]; number of lesions): 5.0
- pulmonary lesions in all available histological samples, Mean ([5]; number of lesions): 2.5
- pulmonary lesions in all available histological samples, Median ([5]; number of lesions): 2.0
- pulmonary lesions in all available histological samples, Minimum ([5]; number of lesions): 1.0
- Percent Survival [6]: 66.7%
- Percent Survival ([6]; listed as voriconazole): Approximately 67%
- Median Survival [6]: >12 days
- Median Survival ([6]; listed as voriconazole): over 12 days
- difference in survival versus negative control (inhaled Captisol) and positive control (intraperitoneal Amphotericin B) ([6]; Kaplan-Meier survival curves): statistically significant (p<0.05) difference in survival
- solubility ([7]; water with SAE-CD, aqueous with cosolvent or surfactant or cyclodextrin, thermodynamic from solid, Voriconazole (mg/ml) at saturated solubility, SAE-CD 43.26 mg/ml (r4)): 3.34 mg/mL (≈ 9.56 mM)
- solubility ([7]; water with SAE-CD, aqueous with cosolvent or surfactant or cyclodextrin, thermodynamic from solid, Voriconazole (mg/ml) at saturated solubility, SAE-CD 43.26 mg/ml as printed (r8)): 35.1 mg/mL (≈ 101 mM)
- solubility ([7]; water with SAE-CD, aqueous with cosolvent or surfactant or cyclodextrin, thermodynamic from solid, Voriconazole (mg/ml) at saturated solubility, SAE-CD 108.15 mg/ml): 8.39 mg/mL (≈ 24 mM)
- solubility ([7]; water with SAE-CD, aqueous with cosolvent or surfactant or cyclodextrin, thermodynamic from solid, Voriconazole (mg/ml) at saturated solubility, SAE-CD 216.3 mg/ml): 17.3 mg/mL (≈ 49.6 mM)
- solubility ([7]; water with SAE-CD, aqueous with cosolvent or surfactant or cyclodextrin, thermodynamic from solid, Voriconazole (mg/ml) at saturated solubility, SAE-CD 324.45 mg/ml): 26.5 mg/mL (≈ 75.8 mM)
- solubility ([7]; water, room temperature, absence of water soluble cyclodextrin derivative, read-out: aqueous solubility): 0.68 to 0.69 mg/mL (≈ 1.95 to 1.98 mM)
- Cmax Lung ([8]; Large Mice (high flow rate, 5 L/min), single dose): 1.62 microgram/g
- AUC (0-6 hr) Lung [8, 10]: 2408.0 microgram × min/g
- Cmax Lung [8, 10]: 11.02 microgram/g
- Kp ([8]; male, ICR, mouse, in vivo, inhaled or intranasal): 1.4 to 1.6
- Tmax ([8]; male, ICR, mouse, lung, inhaled or intranasal, 6.09 microgram/mL, Tmax Lung, Small Mice (low flow rate, 1 L/min), single dose, 20 minute nebulization): ≤ 30 min
- Tmax ([8]; male, ICR, mouse, lung, inhaled or intranasal, Lung Tmax, summary table): 10 to 30 min
- Tmax ([8]; male, ICR, mouse, lung, inhaled or intranasal, Tmax Lung, Large Mice (high flow rate, 5 L/min), single dose, 20 minute nebulization): 10 min
- Tmax ([8]; male, ICR, mouse, lung, inhaled or intranasal, Tmax Lung, Small Mice (low flow rate, 1 L/min), single dose, 20 minute nebulization): 30 min
- Tmax ([8]; male, ICR, mouse, plasma (heading says blood), inhaled or intranasal, Blood Tmax, summary table): 20 to 30 min
- Cmax ([8]; male, ICR, mouse, plasma, inhaled or intranasal, 6.09 microgram/mL, Cmax Plasma, Small Mice (low flow rate, 1 L/min), single dose): 7090 ng/mL
- Tmax ([8]; male, ICR, mouse, plasma, inhaled or intranasal, 6.09 microgram/mL, Tmax Plasma, Small Mice (low flow rate, 1 L/min), single dose, 20 minute nebulization): ≤ 30 min
- AUC(0-t) ([8]; male, ICR, mouse, plasma, inhaled or intranasal, Large Mice (high flow rate, 5 L/min), single dose): 2270 ng·h/mL
- AUC(0-t) ([8]; male, ICR, mouse, plasma, inhaled or intranasal, Small Mice (low flow rate, 1 L/min), single dose): 25800 ng·h/mL
- Cmax ([8]; male, ICR, mouse, plasma, inhaled or intranasal, Blood Cmax, single-dose): 7090 ng/mL
- Cmax ([8]; male, ICR, mouse, plasma, inhaled or intranasal, Cmax Plasma, Large Mice (high flow rate, 5 L/min), single dose): 1180 ng/mL
- Tmax ([8]; male, ICR, mouse, plasma, inhaled or intranasal, Tmax Plasma, Large Mice (high flow rate, 5 L/min), single dose, 20 minute nebulization): 20 min
- Tmax ([8]; male, ICR, mouse, plasma, inhaled or intranasal, Tmax Plasma, Small Mice (low flow rate, 1 L/min), single dose, 20 minute nebulization): 30 min
- Lung Cmax ([8]; single-dose, mouse): 11020 ng/mL
- increase in total drug exposure as measured by AUC0-6 for lung tissue and plasma ([8]; slower flow rate (small mice) versus high flow rate (large mice)): > 10 fold
